Reference: publication PMC4965013, “Open Source Drug Discovery with the Malaria Box Compound Collection for Neglected Diseases and Beyond” (PLoS Pathogens, 2016)

What was measured:
P. falciparum = assay: EC50 listed in S2 Table Metabolomics (used to set the concentration tested); format: cell-based; settings: Plasmodium falciparum; EC50 used for Factor_XEC50 in metabolomics; read-out: EC50_nM
[1] = tested on: P. falciparum 3D7 trophozoites; assay: Metabolomic fingerprint profiling LC-MS; format: cell-based, Plasmodium falciparum; design: UDP-D-glucose / ADP-D-glucose: unit not given here; settings: for Acetyllysine / N-acetyl-L-ornithine / N-carbamoyl-L-aspartate / NADPH / dAMP / dCMP / dTDP / dTMP / dTTP / dihydroorotate / orotate / DLH / DLS/SDL/SID / PD / PEE / PVNF / 3-phosphoglycerate / ADP-D-glucose / ATP / CDP / D-sedoheptulose-1/7-phosphate / FAD / GMP / NAD+ / NADP+ / Octoluse Bisphosphate / Pyroglutamic acid / UDP-D-glucose / UDP-D-glucuronate / UDP-N-acetyl-glucosamine / UDP / UMP / UTP / a-ketoglutarate / citrate/isocitrate / cytidine / dATP / dGMP/AMP / fumarate / glucose-1/6-phosphate / glycerate / guanine / guanosine / hypoxanthine / indole / inosine / nicotinate / ornithine / phosphoenolpyruvate / pyruvate / ribose-phosphate / sarcosine/alanine / sn-glycerol-3-phosphate / succinate/methylmalonic acid / uridine / xanthosine: S2 Table Metabolomics; for Acetyllysine: metabolite Acetyllysine; for N-acetyl-L-ornithine: metabolite N-acetyl-L-ornithine; for N-carbamoyl-L-aspartate: metabolite N-carbamoyl-L-aspartate; for NADPH: metabolite NADPH; for dAMP: metabolite dAMP; for dCMP: metabolite dCMP; for dTDP: metabolite dTDP; for dTMP: metabolite dTMP; for dTTP: metabolite dTTP; for dihydroorotate: metabolite dihydroorotate; for orotate: metabolite orotate; for DLH: peptide DLH; for DLS/SDL/SID: peptide DLS/SDL/SID; for PD: peptide PD; for PEE: peptide PEE; for PVNF: peptide PVNF; for 3-phosphoglycerate: metabolite 3-phosphoglycerate; for ADP-D-glucose: metabolite ADP-D-glucose; for ATP: metabolite ATP; for CDP: metabolite CDP; for CDP / D-sedoheptulose-1/7-phosphate / GMP / Octoluse Bisphosphate / UDP / UMP / UTP / citrate/isocitrate / dGMP/AMP / fumarate / glucose-1/6-phosphate / glycerate / guanine / guanosine / inosine / pyruvate / sarcosine/alanine / succinate/methylmalonic acid / uridine / xanthosine: change in metabolite level after compound treatment; for D-sedoheptulose-1/7-phosphate: metabolite D-sedoheptulose-1/7-phosphate; for FAD: metabolite FAD; for GMP: metabolite GMP; for NAD+: metabolite NAD+; for NADP+: metabolite NADP+; for Octoluse Bisphosphate: metabolite Octoluse Bisphosphate; for Pyroglutamic acid: metabolite Pyroglutamic acid; for UDP-D-glucose: metabolite UDP-D-glucose; for UDP-D-glucuronate: metabolite UDP-D-glucuronate; for UDP-N-acetyl-glucosamine: metabolite UDP-N-acetyl-glucosamine; for UDP: metabolite UDP; for UMP: metabolite UMP; for UTP: metabolite UTP; for a-ketoglutarate: metabolite a-ketoglutarate; for citrate/isocitrate: metabolite citrate/isocitrate; for cytidine: metabolite cytidine; for dATP: metabolite dATP; for dGMP/AMP: metabolite dGMP/AMP; for fumarate: metabolite fumarate; for glucose-1/6-phosphate: metabolite glucose-1/6-phosphate; for glycerate: metabolite glycerate; for guanine: metabolite guanine; for guanosine: metabolite guanosine; for hypoxanthine: metabolite hypoxanthine; for indole: metabolite indole; for inosine: metabolite inosine; for 2_3-Diphosphoglyceric acid / 4-phosphopantothenate / 6-phospho-D-gluconate / FMN / IMP / Pyrophosphate / Sedoheptoluse bisphosphate / cyclic-AMP / glutathione disulfide / lactate / myo-inositol: metabolite level change after treatment; for nicotinate: metabolite nicotinate; for ornithine: metabolite ornithine; for phosphoenolpyruvate: metabolite phosphoenolpyruvate; for pyruvate: metabolite pyruvate; for ribose-phosphate: metabolite ribose-phosphate; for sarcosine/alanine: metabolite sarcosine/alanine; for sn-glycerol-3-phosphate: metabolite sn-glycerol-3-phosphate; for succinate/methylmalonic acid: metabolite succinate/methylmalonic acid; for uridine: metabolite uridine; for xanthosine: metabolite xanthosine

## COc1ccc(-n2ccnc2SCC(=O)Nc2cc(C)ccc2C)c(OC)c1 [MMV019258]
P. falciparum
  EC50: 170 nM
[1]
  Acetyllysine: -0.6249
  N-acetyl-L-ornithine: -0.6242
  N-carbamoyl-L-aspartate: 3.802
  NADPH: -0.4851
  dAMP: -1.834
  dCMP: 0.07117
  dTDP: -1.878
  dTMP: -1.688
  dTTP: -1.338
  dihydroorotate: 5.204
  orotate: -0.1277
  DLH: -0.04693
  DLS/SDL/SID: -0.2869
  PD: -0.04264
  PEE: -0.4454
  PVNF: -2.048
  3-phosphoglycerate: 0.6242
  ADP-D-glucose: 0.3573
  ATP: 0.2564
  CDP: -1.841
  D-sedoheptulose-1/7-phosphate: -1.029
  FAD: 0.0674
  GMP: 1.676
  NAD+: 0.1657
  NADP+: 0.1196
  Octoluse Bisphosphate: -0.03706
  Pyroglutamic acid: 0.9996
  UDP-D-glucose: 0.07144
  UDP-D-glucuronate: -0.1808
  UDP-N-acetyl-glucosamine: -0.2701
  UDP: -2.466
  UMP: -0.6353
  UTP: -1.944
  a-ketoglutarate: 0.866
  citrate/isocitrate: 0.4908
  cytidine: 0.5413
  dATP: 0.5274
  dGMP/AMP: -0.3361
  fumarate: 0.3957
  glucose-1/6-phosphate: 0.221
  glycerate: 0.7468
  guanine: 0.4637
  guanosine: 0.7901
  hypoxanthine: 1.05
  indole: 0.5756
  inosine: 0.8159
  2_3-Diphosphoglyceric acid: -0.06901
  4-phosphopantothenate: -0.2542
  6-phospho-D-gluconate: 0.0357
  FMN: -0.006391
  IMP: 0.3439
  Pyrophosphate: -0.1345
  Sedoheptoluse bisphosphate: -0.0261
  cyclic-AMP: -0.1381
  glutathione disulfide: -0.07054
  lactate: 0.415
  myo-inositol: -0.225
  nicotinate: 0.9606
  ornithine: 0.46
  phosphoenolpyruvate: 0.911
  pyruvate: 0.8605
  ribose-phosphate: 0.2278
  sarcosine/alanine: 0.199
  sn-glycerol-3-phosphate: 0.01743
  succinate/methylmalonic acid: 0.09628
  uridine: 0.32
  xanthosine: 1.135

## CCOc1cc2c(cc1OCC)C(c1cc(OC)c(O)cc1Cl)NCC2 (stereo not shown) [MMV008956]
P. falciparum
  EC50: 370 nM
[1]
  Acetyllysine: -0.8944
  N-acetyl-L-ornithine: -0.5916
  N-carbamoyl-L-aspartate: 0.571
  NADPH: 0.6672
  dAMP: 1.243
  dCMP: 4.619
  dTDP: 1.146
  dTMP: 1.439
  dTTP: 1.156
  dihydroorotate: 1.1855
  orotate: -0.3284
  DLH: -3.711
  DLS/SDL/SID: -0.5828
  PD: -0.4938
  PEE: -0.813
  PVNF: -0.872
  3-phosphoglycerate: 0.6004
  ADP-D-glucose: 0.1393
  ATP: 0.8747
  CDP: 1.061
  D-sedoheptulose-1/7-phosphate: 0.1684
  FAD: 0.6779
  GMP: -0.4979
  NAD+: 0.03875
  NADP+: 0.5626
  Octoluse Bisphosphate: 0.08662
  Pyroglutamic acid: 0.4321
  UDP-D-glucose: 0.1438
  UDP-D-glucuronate: 0.2178
  UDP-N-acetyl-glucosamine: 0.5265
  UDP: 1.214
  UMP: 0.03068
  UTP: 0.582
  a-ketoglutarate: -0.2514
  citrate/isocitrate: -0.7004
  cytidine: 0.5985
  dATP: 0.6577
  dGMP/AMP: 0.5512
  fumarate: -0.2713
  glucose-1/6-phosphate: 2.3505
  glycerate: 0.6776
  guanine: 0.5662
  guanosine: -1.286
  hypoxanthine: 0.3973
  indole: -0.009638
  inosine: -0.3408
  2_3-Diphosphoglyceric acid: 1.008
  4-phosphopantothenate: 0.721
  6-phospho-D-gluconate: 0.8262
  FMN: 0.6429
  IMP: 0.4913
  Pyrophosphate: -0.1587
  Sedoheptoluse bisphosphate: 0.3697
  cyclic-AMP: 0.7848
  glutathione disulfide: 0.5413
  lactate: 1.983
  myo-inositol: 3.051
  nicotinate: 0.3445
  ornithine: -0.06192
  phosphoenolpyruvate: 0.186
  pyruvate: 0.4759
  ribose-phosphate: 0.1544
  sarcosine/alanine: -0.3792
  sn-glycerol-3-phosphate: 0.3263
  succinate/methylmalonic acid: -0.2652
  uridine: 0.5193
  xanthosine: -1.526
